{
  "source": "patent US6121253A",
  "about": "“Prostaglandin conjugates for treating or preventing bone disease” (Merck Frosst Canada & Co., priority 1999, dated 2000)",
  "key": {"[1]": {"test": "Characterization of 3H liberated on hydrolysis of conjugate in rat plasma", "format": "in vitro ADME", "details": "conjugate 20, 24 hr, fresh rat plasma, of the initial counts", "protocol": "A stock solution of 0.4 μCi conjugate 20 or [^3 H]-PGE2 (0.4 μCi) is incubated in either fresh rat plasma, boiled plasma or PBS (ml) at 37 C. After 4 h or 24 h, 100 μl aliquots are removed, diluted with acetonitrile (100 μl), vortexed and centrifuged. 100 μl of supernatant is separated by HPLC (C-18, 0.5% HOAc in water, 66%: acetonitrile 33%, 1 ml/min) with effluent monitored by an on-line scintillation detector and UV detector. No radioactivity is eluted under these conditions when 0.2 μCi, conjugate 20 (62 μg) is applied. (It is necessary to mix 0.4 mg of unlabelled 20 with 0.1 μCi labelled 20 to recover 0.05 μCi from the HPLC.) Radioactive peaks are identified by coelution with authentic [^3 H]-PGE2 and cold PGA2. An authentic sample of PGB2 is prepared by incubating PGE2 (2.4 mg) with 1 ml rat plasma at 37° C. for 24 hr. The sample, purified by HPLC, will have appropriate ^1 H-NMR, UV and MS. To identify radioactive peaks eluting at the solvent front with incubation of conjugate 20 for 24 hr in fresh rat plasma, the fraction is collected and distilled. The collected distillate has 60% of the initial counts."}, "[2]": {"details": "1, 3 and 6 mg/Kg/day PGE2, rapidly growing rats; cited from earlier work"}, "[3]": {"details": "cited from earlier work"}, "[4]": {"details": "cited from earlier work", "remark": "listed apart in the source"}, "[5]": {"details": "long term s.c.; adrenal glands, liver, kidneys, and lungs; cited from earlier work"}, "[6]": {"details": "oral dosing; cited from earlier work"}, "[7]": {"test": "Uptake/binding of dual-labelled conjugate to human bone powder in fetal bovine serum", "protocol": "Dual-labelled conjugate 14 ([^3 H]-PGE2 /[^14 C]-alendronate) (21.64 μCi of ^14 C and 19.05 μCi of ^3 H) is placed in 1 ml 100% fetal bovine serum to yield a final concentration of 3.5 μM. […] of this solution is incubated with 10 mg bone powder for 1, 2, 3 and 5 mins with vigorous shaking. The mixture is centrifuged (20 sec), 125 μl aliquot is taken from each sample and counted in 10 ml Atomlight in an LKB liquid scintillation counter, 125 μl of the radioactive sample is also counted at 0 time. The uptake of radioactivity into the bone powder is calculated by subtracting the dpms in the medium counted at the times indicated above from dpms at 0 time and this number is divided by the dpms at 0 time."}, "[8]": {"test": "Dissociation/release of label from human bone powder in fetal bovine serum at 37 C", "format": "in vitro ADME", "protocol": "Dissociation of [^3 H]-PGE2 /[^14 C]-alendronate from human bone powder in fetal bovine serum at 37 C is measured by incubating 10 mg of human one powder with 1 μl [^3 H]-PGE2 /[^14 C]-ABP in 1 ml FBS for 5 mins. The mixture is centrifuged (20 sec), 100 μl aliquot is taken and counted in Atomlight in an LKB liquid scintillation counter. The rest of the 900 μl solution is withdrawn, the bone powder is washed once with 1 ml phosphate buffered saline, 1 ml fresh fetal bovine serum is added and incubated with the bone powder for 15, 24, 39, 48, 59, 79 and 103 hours in a shaking bath at 37° C. 100 μl aliquots are withdrawn at these times and counted in 10 ml Atomlight in an LKB liquid scintillation counter. The release of radioactivity from the human bone powder into the medium is calculated as follows: dpms from 100 μl of the [^3 H]-PGE2 /[^14 C]-ABP at 5 mins are subtracted from dpms at 0 time. The resulting dpms reflect radioactivity taken up by bone powder. The dpms obtained by counting 100 μl aliquots at each time point are then divided by the dpms taken up by bone. 13% of the ^3 H-moiety is released into the medium at 15 hrs and by 103 hours 32.9% of the radioactivity is released into the medium."}, "[9]": {"test": "In vivo uptake and release in rat tibiae and femora", "design": "species or system rat (Sprague-Dawley female)", "details": "single i.v. dose", "protocol": "The animals used in this experiment were sacrificed at 24 hours, 14 and 28 days after the compounds claimed in the instant invention were administered. The radioactivity of the ^14 C and ^3 H was measured after incineration of the long bones to determine the percentage of compound retained in the bone. […] High LP levels are normally associated with the breakdown of bone collagen.\nBoth compounds are administered i.v. via the tail vein to Sprague-Dawley female rats as a radiolabelled compound, equivalent to about 0.3 μCi/animal, [^3 H]-alendronate is administered to nine rats and [^3 H]-PGE2 /[^14 C]-ABP (dual labelled conjugate 14), is administered to seven rats. After 1, 14 or 28 days, animals are sacrificed by CO2 inhalation and the tibiae and femora are dissected, weighed and then stored at -20° C. The amount of radioactivity incorporated into the bone is determined by incineration in a Packard combuster after first air drying the bone for three days at ambient temperature. The percent of the compound retained in the skeleton at each time point is calculated on the basis of the radioactivity, converted to nmoles/gm bone on the assumption that the skeleton represents 8% of the body weight. The skeletal retention is expressed as percent administered dose."}, "[10]": {"details": "s.c. over 60, 120, and 180 days"}},
  "note": "Read-outs that look alike come from different tables or passages of the source.",
  "data": [
    {"smiles": "CCCCC[C@@H](/C=C/[C@H]1[C@H](O)CC(=O)[C@@H]1C/C=C\\CCCC(=O)O)OC(=O)CSCc1cc(CSCC(=O)O[C@H](/C=C/[C@H]2[C@H](O)CC(=O)[C@@H]2C/C=C\\CCCC(=O)O)CCCCC)cc(CC(P(=O)(O)O)P(=O)(O)O)c1", "note": "[Conjugate 20, Bis-(PGE2)-bisphosphonate conjugate]", "values": [
      {"measurement": "counts in collected distillate of radioactive peak eluting at solvent front", "setting": "[1]", "result": 60, "unit": "%"}
    ]},
    {"smiles": "CCCCC[C@H](O)/C=C/[C@H]1[C@H](O)CC(=O)[C@@H]1C/C=C\\CCCC(=O)O", "note": "[PGE2]", "values": [
      {"measurement": "hard tissue mass in the secondary spongiosa of the proximal tibial metaphysis", "setting": "[2]", "result": "increase in hard tissue mass"},
      {"measurement": "number of trabeculae", "setting": "[2]", "result": "increase in the number of trabeculae"},
      {"measurement": "periosteal and corticoendosteal bone mass", "setting": "[3]; daily s.c. administration", "result": "increases periosteal and corticoendosteal bone mass"},
      {"measurement": "bone activity", "setting": "[3]; [10]", "result": "elevated bone activity"},
      {"measurement": "tibial diaphyseal bone mass", "setting": "[3]; [10]", "result": "increased tibial diaphyseal bone mass"},
      {"measurement": "serum phosphate levels", "setting": "[4]; 1 mg of PGE2", "result": "significant decreases"},
      {"measurement": "side effects", "setting": "[4]; s.c., doses of 3 mg/Kg/day or higher, rats", "result": "diarrhea and flushing of the extremities along with weight loss"},
      {"measurement": "soft tissue weight", "setting": "[5]", "result": "soft tissue weight increases in adrenal glands, liver, kidneys, and lungs"},
      {"measurement": "side effects", "setting": "[6]", "result": "loose stools, diarrhea, vomiting, infected sclerae, and increased serum alkaline phosphatase levels"}
    ]},
    {"smiles": "CCCCC[C@@H](/C=C/[C@H]1[C@H](O)CC(=O)[C@@H]1C/C=C\\CCCC(=O)O)OC(=O)CSCCCC(P(=O)(O)O)P(=O)(O)O", "note": "[Conjugate 14, PGE2 bisphosphonate conjugate]", "values": [
      {"measurement": "time of uptake to human bone powder", "setting": "[7]; in vitro", "result": "within one minute"},
      {"measurement": "uptake of 3H-moiety by human bone powder", "setting": "[7]; within 1 min", "result": "~53", "unit": "%"},
      {"measurement": "uptake of 14C-moiety by human bone powder", "setting": "[7]; within 1 min", "result": "about 76%"},
      {"measurement": "uptake of 14C-moiety by human bone powder", "setting": "[7]; within 1 min, listed as 14 C/^3 H dual labeled compound", "result": "About 77%"},
      {"measurement": "3H-moiety released into the medium", "setting": "[8]; 15 hrs, fetal bovine serum, 37° C.", "result": 13, "unit": "%"},
      {"measurement": "radioactivity released into the medium (3H-moiety)", "setting": "[8]; 103 hours, fetal bovine serum, 37° C.", "result": 32.9, "unit": "%"},
      {"measurement": "rate of release (disassociation) of PG (3H) moiety from human bone powder", "setting": "[8]; fetal bovine serum, 37° C., listed as 14 C/^3 H dual labeled compound", "result": "approximately 5 %/day"},
      {"measurement": "rate of release (disassociation) of PG (3H) moiety from human bone powder", "setting": "[8]; fetal bovine serum, 37° C., listed as [^3 H]-PGE2 /[^14 C]-alendronate", "result": "About 5 %/day"},
      {"measurement": "release of the prostaglandin from the bisphosphonate at bone", "setting": "[8]; radiolabel and radioimmunoassay experiments", "result": "confirm release of the prostaglandin from the bisphosphonate at the bone cell site"},
      {"measurement": "dpms of 14C-moiety in the medium", "setting": "[8]; up to 103 hours, fetal bovine serum, 37° C.", "result": "not significantly changed"},
      {"measurement": "uptake into / delivery to bone in vivo", "setting": "[9]", "result": "uptake of the labeled compound shown below into rat tibiae and femora after a single dose was administered intravaneously was demonstrated"}
    ]}
  ]
}
